{
  "source": "patent US5157052A",
  "about": "“Method for inhibiting IgE production” (priority 1990, dated 1992)",
  "type_in_all_cases": "in vivo, mouse (Balb/c female)",
  "key": {"[1]": {"test_system": "Lyt 1", "assay": "Splenocyte cell surface density/distribution (FACS): Lyt 1"}, "[2]": {"test_system": "IL-2 receptor", "assay": "Splenocyte cell surface density/distribution (FACS): IL-2 receptor", "description": "Another (Group B) is injected with 20 μg (±) methyl 11α,16-dihydroxy-16-methyl-9-oxoprosta-5Z,13E-dien-1-oate as in Example 13. […] A 3 cm incision is made with a scalpel above the left hip, and the spleen is cut free from adjoining tissue and placed in a 100 mn plastic culture dish containing 10 ml PBS. The splenic cells are then made into a suspension, by rubbing the spleens between the rough, frosted ends of microscope slides repeatedly until the only remaining particulate matter is connective tissue. Cells are transferred to a 15 ml conical polystyrene tube and centrifuged in a centrifuge at 1200 rpm for 5 minutes. The supernatant is discarded by aspiration and the cell pellet is resuspended in 10 ml PBS, then centrifuged at 1200 rpm for 5 minutes. The supernatant is aspirated and the cell pellet is resuspended in 15 mM Tris, 140 mM Ammonium Chloride, to lyse red blood cells. After incubating at room temperature for 10 minutes the cell suspension is centrifuged at 1200 rpm for 10 minutes. The supernatant is discarded and the cell pellet is resuspended in 10 ml FACS Buffer (PBS containing 0.1% BSA and 0.1% Sodium Azide). The cell suspension is filtered through sterile glass wool plugged in the top of a pasteur pipet. Cells in the flow through are counted using a hemacytometer, then the cell suspension is centrifuged at 1200 rpm for 5 minutes. The supernatant is discarded and the cell pellet is resuspended in a volume of FACS Buffer that will yield 4×10^7 cells/ml. 10 μl (4×10^5 cells) is added to each well of a 96-well V-bottom plate. 25 μl of diluted monoclonal antibody directed against splenocyte cell surface proteins is added to each well: Major Histocompatability Complex (MHC) Class II (M5114, ATCC, Rockville Md.), MHC Class I (M1/42, ATCC), Anti-IgD (JA12.5, ATCC, Rockville, Md.), Thymocyte (Thy)-1 (JIJ, ATCC), B220 (14.8, ATCC), Kappa light chain (187, ATCC), IL-2 Receptor (7D4, ATCC), Lyt-1 (7.313, ATCC) and CD23 (biotinylated B3B4) and incubated on ice for 30 minutes. 100 μl 10% BSA 0.1% sodium azide is added to each well, then the plates are centrifuged at 1200 rpm for 10 minutes. The liquid is removed by aspiration and the cell pellets are resuspended in 100 μl FACS Buffer, and centrifuged at 1200 rpm for 5 minutes. […] Samples are transferred to individual tubes and 10,000 cells are analyzed. Using the Lysis software (Becton Dickinson, Mountain View, Calif.) the mean channel log fluorescence and percent positive cells are determined for the entire cell population. […]"}, "[3]": {"test_system": "B220", "assay": "Splenocyte cell surface density/distribution (FACS): B220"}},
  "data": [
    {"molecule": "CCCCC(C)(O)C/C=C/[C@H]1[C@H](O)CC(=O)[C@@H]1C/C=C\\CCCC(=O)OC", "note": "(mixture of isomers) [(±) methyl 11α,16-dihydroxy-16-methyl-9-oxoprosta-5Z,13E-dien-1-oate]", "values": [
      {"measurement": "Percentage Positive Cells", "setting": "[1]; anti-IgD stimulated mice, 20 μg days 3 and 4, day 7 (PBS 31.3)", "value": "30.4 ± 8.8", "unit": "%"},
      {"measurement": "Mean Channel Log Fluorescence", "setting": "[1]; anti-IgD stimulated mice, 20 μg days 3 and 4, day 7 (PBS 110)", "value": "109 ± 2"},
      {"measurement": "Percentage Positive Cells", "setting": "[1]; unstimulated mice, 20 μg (PBS 31)", "value": "44.5 ± 7", "unit": "%"},
      {"measurement": "Mean Channel Log Fluorescence", "setting": "[1]; unstimulated mice, 20 μg (PBS 110)", "value": "117 ± 6"},
      {"measurement": "Percentage Positive Cells", "setting": "[2]; anti-IgD stimulated mice, 20 μg days 3 and 4, day 7 (PBS 18.4)", "value": "23 ± 7.7", "unit": "%"},
      {"measurement": "Mean Channel Log Fluorescence", "setting": "[2]; anti-IgD stimulated mice, 20 μg days 3 and 4, day 7 (PBS 101)", "value": "97 ± 1.5"},
      {"measurement": "Percentage Positive Cells", "setting": "[2]; unstimulated mice, 20 μg (PBS 2.4)", "value": "2.7 ± 0.3", "unit": "%"},
      {"measurement": "Mean Channel Log Fluorescence", "setting": "[2]; unstimulated mice, 20 μg (PBS 98)", "value": "96 ± 1"},
      {"measurement": "Percentage Positive Cells", "setting": "[3]; anti-IgD stimulated mice, 20 μg days 3 and 4, day 7 (PBS 49.3)", "value": "61.2 ± .9%"},
      {"measurement": "Mean Channel Log Fluorescence", "setting": "[3]; anti-IgD stimulated mice, 20 μg days 3 and 4, day 7 (PBS 107)", "value": "112 ± 4"},
      {"measurement": "Percentage Positive Cells", "setting": "[3]; unstimulated mice, 20 μg (PBS 49.6)", "value": "50.6 ± 4.6", "unit": "%"},
      {"measurement": "Mean Channel Log Fluorescence", "setting": "[3]; unstimulated mice, 20 μg (PBS 104)", "value": "105 ± 2.5"}
    ]}
  ]
}
